From patent publication US6335373B1, “Process to produce stabilized carnosic acid in high concentration” (Lycored Natural Products Industries, Ltd., priority 2000, dated 2002)

How the values were obtained:
[1] = Stabilization of carnosic acid in 60% ethanol rosemary extract with added acids, kept in the dark; format: physicochemical
Protocol: To 4.0 litre of ethanol (60%) are added 500 gr. of dried and finely ground rosemary leaves, having a concentration of 4.3% carnosic acid. Extraction is done for 3 hours at room temperature. 3.22 litre of extract are obtained by vacuum filtration of the biomass. The concentrate is divided to 200 ml. portions where different acids at various concentrations are added to these portions. All portions are kept in the dark and the variations in the carnosic acid concentrations of the different portions are checked. […] Only under acidic conditions is the concentration of carnosic acid retained where the optimal acids are phosphoric and ascorbic acid.

[2] = Exposure of carnosic acid in an extract to room temperature and light; format: physicochemical; settings: pH of the extract above 6
[3] = identified by Brieskorn and Domling in 1964; cited from earlier work
stephilococus = settings: against stephilococus and dental caries, reported; cited from earlier work

Structure (SMILES): CC(C)c1cc2c(c(O)c1O)[C@@]1(C(=O)O)CCCC(C)(C)[C@@H]1CC2 [carnosic acid]
- Concentration of Carnosic ([1]; Acetic 1%, +2 Hours): 4770 µg/mL
- Concentration of Carnosic ([1]; Acetic 1%, +5 Hours): 4740 µg/mL
- Concentration of Carnosic ([1]; Acetic 1%, +1 hour): 4760 µg/mL
- Concentration of Carnosic ([1]; Acetic 1%, +24 hour): 4590 µg/mL
- Concentration of Carnosic ([1]; Acetic 1%, +48 hours): 4260 µg/mL
- Concentration of Carnosic ([1]; Acetic 1%, Time Zero): 4800 µg/mL
- Concentration of Carnosic ([1]; Acetic 2%, +2 Hours): 4690 µg/mL
- Concentration of Carnosic ([1]; Acetic 2%, +5 Hours): 4710 µg/mL
- Concentration of Carnosic ([1]; Acetic 2%, +1 hour): 4790 µg/mL
- Concentration of Carnosic ([1]; Acetic 2%, +24 hour): 4490 µg/mL
- Concentration of Carnosic ([1]; Acetic 2%, +48 hours): 4230 µg/mL
- Concentration of Carnosic ([1]; Acetic 2%, Time Zero): 4800 µg/mL
- Concentration of Carnosic ([1]; Ascorbic 0.05%, +2 Hours): 4710 µg/mL
- Concentration of Carnosic ([1]; Ascorbic 0.05%, +5 Hours): 4680 µg/mL
- Concentration of Carnosic ([1]; Ascorbic 0.05%, +1 hour): 4750 µg/mL
- Concentration of Carnosic ([1]; Ascorbic 0.05%, +24 hour): 4780 µg/mL
- Concentration of Carnosic ([1]; Ascorbic 0.05%, +48 hours): 4790 µg/mL
- Concentration of Carnosic ([1]; Ascorbic 0.05%, Time Zero): 4800 µg/mL
- Concentration of Carnosic ([1]; Ascorbic 0.1%, +2 Hours): 4710 µg/mL
- Concentration of Carnosic ([1]; Ascorbic 0.1%, +5 Hours): 4720 µg/mL
- Concentration of Carnosic ([1]; Ascorbic 0.1%, +1 hour): 4740 µg/mL
- Concentration of Carnosic ([1]; Ascorbic 0.1%, +24 hour): 4790 µg/mL
- Concentration of Carnosic ([1]; Ascorbic 0.1%, +48 hours): 4790 µg/mL
- Concentration of Carnosic ([1]; Ascorbic 0.1%, Time Zero): 4800 µg/mL
- Concentration of Carnosic ([1]; Ascorbic 0.5%, +2 Hours): 4830 µg/mL
- Concentration of Carnosic ([1]; Ascorbic 0.5%, +5 Hours): 4820 µg/mL
- Concentration of Carnosic ([1]; Ascorbic 0.5%, +1 hour): 4860 µg/mL
- Concentration of Carnosic ([1]; Ascorbic 0.5%, +24 hour): 4810 µg/mL
- Concentration of Carnosic ([1]; Ascorbic 0.5%, +48 hours): 4820 µg/mL
- Concentration of Carnosic ([1]; Ascorbic 0.5%, Time Zero): 4800 µg/mL
- Concentration of Carnosic ([1]; Ascorbic 1%, +2 Hours): 4840 µg/mL
- Concentration of Carnosic ([1]; Ascorbic 1%, +5 Hours): 4840 µg/mL
- Concentration of Carnosic ([1]; Ascorbic 1%, +1 hour): 4830 µg/mL
- Concentration of Carnosic ([1]; Ascorbic 1%, +24 hour): 4820 µg/mL
- Concentration of Carnosic ([1]; Ascorbic 1%, +48 hours): 4800 µg/mL
- Concentration of Carnosic ([1]; Ascorbic 1%, Time Zero): 4800 µg/mL
- Concentration of Carnosic ([1]; Citric 0.1%, +2 Hours): 4560 µg/mL
- Concentration of Carnosic ([1]; Citric 0.1%, +5 Hours): 4490 µg/mL
- Concentration of Carnosic ([1]; Citric 0.1%, +1 hour): 4730 µg/mL
- Concentration of Carnosic ([1]; Citric 0.1%, +24 hour): 4270 µg/mL
- Concentration of Carnosic ([1]; Citric 0.1%, +48 hours): 4130 µg/mL
- Concentration of Carnosic ([1]; Citric 0.1%, Time Zero): 4800 µg/mL
- Concentration of Carnosic ([1]; Citric 0.5%, +2 Hours): 4580 µg/mL
- Concentration of Carnosic ([1]; Citric 0.5%, +5 Hours): 4530 µg/mL
- Concentration of Carnosic ([1]; Citric 0.5%, +1 hour): 4760 µg/mL
- Concentration of Carnosic ([1]; Citric 0.5%, +24 hour): 4510 µg/mL
- Concentration of Carnosic ([1]; Citric 0.5%, +48 hours): 4220 µg/mL
- Concentration of Carnosic ([1]; Citric 0.5%, Time Zero): 4800 µg/mL
- Concentration of Carnosic ([1]; Citric 1%, +2 Hours): 4530 µg/mL
- Concentration of Carnosic ([1]; Citric 1%, +5 Hours): 4560 µg/mL
- Concentration of Carnosic ([1]; Citric 1%, +1 hour): 4760 µg/mL
- Concentration of Carnosic ([1]; Citric 1%, +24 hour): 4560 µg/mL
- Concentration of Carnosic ([1]; Citric 1%, +48 hours): 4420 µg/mL
- Concentration of Carnosic ([1]; Citric 1%, Time Zero): 4800 µg/mL
- Concentration of Carnosic ([1]; Control, acid 0%, +2 Hours): 4420 µg/mL
- Concentration of Carnosic ([1]; Control, acid 0%, +5 Hours): 4270 µg/mL
- Concentration of Carnosic ([1]; Control, acid 0%, +1 hour): 4510 µg/mL
- Concentration of Carnosic ([1]; Control, acid 0%, +24 hour): 3550 µg/mL
- Concentration of Carnosic ([1]; Control, acid 0%, +48 hours): 2780 µg/mL
- Concentration of Carnosic ([1]; Control, acid 0%, Time Zero): 4800 µg/mL
- Concentration of Carnosic ([1]; HCI 0.1%, +2 Hours): 4680 µg/mL
- Concentration of Carnosic ([1]; HCI 0.1%, +5 Hours): 4520 µg/mL
- Concentration of Carnosic ([1]; HCI 0.1%, +1 hour): 4720 µg/mL
- Concentration of Carnosic ([1]; HCI 0.1%, +24 hour): 3690 µg/mL
- Concentration of Carnosic ([1]; HCI 0.1%, +48 hours): 2930 µg/mL
- Concentration of Carnosic ([1]; HCI 0.1%, Time Zero): 4800 µg/mL
- Concentration of Carnosic ([1]; HCI 1%, +2 Hours): 4720 µg/mL
- Concentration of Carnosic ([1]; HCI 1%, +5 Hours): 4530 µg/mL
- Concentration of Carnosic ([1]; HCI 1%, +1 hour): 4780 µg/mL
- Concentration of Carnosic ([1]; HCI 1%, +24 hour): 4540 µg/mL
- Concentration of Carnosic ([1]; HCI 1%, +48 hours): 4390 µg/mL
- Concentration of Carnosic ([1]; HCI 1%, Time Zero): 4800 µg/mL
- Concentration of Carnosic ([1]; HCI 2%, +2 Hours): 4700 µg/mL
- Concentration of Carnosic ([1]; HCI 2%, +5 Hours): 4580 µg/mL
- Concentration of Carnosic ([1]; HCI 2%, +1 hour): 4760 µg/mL
- Concentration of Carnosic ([1]; HCI 2%, +24 hour): 4460 µg/mL
- Concentration of Carnosic ([1]; HCI 2%, +48 hours): 4420 µg/mL
- Concentration of Carnosic ([1]; HCI 2%, Time Zero): 4800 µg/mL
- Concentration of Carnosic ([1]; Phosphoric 1%, +2 Hours): 4790 µg/mL
- Concentration of Carnosic ([1]; Phosphoric 1%, +5 Hours): 4760 µg/mL
- Concentration of Carnosic ([1]; Phosphoric 1%, +1 hour): 4820 µg/mL
- Concentration of Carnosic ([1]; Phosphoric 1%, +24 hour): 4780 µg/mL
- Concentration of Carnosic ([1]; Phosphoric 1%, +48 hours): 4790 µg/mL
- Concentration of Carnosic ([1]; Phosphoric 1%, Time Zero): 4800 µg/mL
- Concentration of Carnosic ([1]; Phosphoric 2%, +2 Hours): 4790 µg/mL
- Concentration of Carnosic ([1]; Phosphoric 2%, +5 Hours): 4750 µg/mL
- Concentration of Carnosic ([1]; Phosphoric 2%, +1 hour): 4770 µg/mL
- Concentration of Carnosic ([1]; Phosphoric 2%, +24 hour): 4810 µg/mL
- Concentration of Carnosic ([1]; Phosphoric 2%, +48 hours): 4780 µg/mL
- Concentration of Carnosic ([1]; Phosphoric 2%, Time Zero): 4800 µg/mL
- period for which carnosic acid is stable ([1]; in acidic polar solution containing water, lower alkyl alcohol and acid): more than 24 hours
- decrease of carnosic acid ([1]; lack of acid): 50%
- change in concentration of carnosic acid [2]: marked decrease
- antioxidant activity [3]: very potent antioxidant
- antibiotic action (stephilococus): antibiotic action
